The record followed here is US11123378B2, “Compositions comprising bacterial strains” (4D Pharma Research Limited, priority 2017, dated 2021).

The test system of this experiment is cerebral tissues in the cerebral ischemia-reperfusion I/R model in mice. Kind of experiment: Histological evaluation (H&E) of cerebral tissues in the cerebral ischemia-reperfusion I/R model. It counts as in vivo. To be noted: right hemisphere hippocampus; termination day 15 or day 29; compared to PBS negative control (2M).

From the text: At termination of the experiment, at either day 15 or day 29, the mice cerebral tissues were subjected to histopathological examinations.
The tissues were studied for pyknotic score (which assesses the extent of cell necrosis and death) and for vacuolisation (which assesses the extent of degeneration similar to apoptosis).
At termination the animals were sacrificed by CO2 asphyxiation. Where possible, half of the animals were sacrificed on day 15, and the other half were sacrificed on day 29. […] Brains were also harvested following saline perfusion. The right hemisphere of each brain was fixed with 2.5% Paraformaldehyde and stored at 2-8° C.
The sections of the right hemisphere of all animals per group were loaded onto slides followed by histological examination. Tissues were trimmed, embedded in paraffin, sectioned at approximately 5 microns thickness and stained with Hematoxylin & Eosin (H&E) (as well as with TUNEL reagents) using standardized protocols. The slides were examined under a light microscope. […]
The numbers of karyopy-knosis and apoptotic cells were counted, and the mean values were calculated. […] Ten field of ×20 magnifications were evaluated for the pyknosis and vacuolization score as follows.
Pyknosis and vacuolization, semi-quantitative scores: • 1. […]
A score was determined for each field of ×20 magnification for each mouse in a given sample group.

Turning to `C[C@]12N[C@H](Cc3ccccc31)c1ccccc12` [MK-801], the “semi-quantitative pyknosis score (H&E)” value is reported as “reduced pyknosis score” and the “semi-quantitative vacuolisation score (H&E)” value is recorded as “did not reduce the vacuolisation score”.
